{"source": "patent US10479784B2", "about": "“Substituted pyrazin-2-amines as inhibitors of ATR kinase” (Vertex Pharmaceuticals Incorporated, priority 2008, dated 2019)", "data": [{"biological_target": "full-length ATR (Homo sapiens (Human), UniProt Q13535)", "sequence (Q13535 whole entry)": "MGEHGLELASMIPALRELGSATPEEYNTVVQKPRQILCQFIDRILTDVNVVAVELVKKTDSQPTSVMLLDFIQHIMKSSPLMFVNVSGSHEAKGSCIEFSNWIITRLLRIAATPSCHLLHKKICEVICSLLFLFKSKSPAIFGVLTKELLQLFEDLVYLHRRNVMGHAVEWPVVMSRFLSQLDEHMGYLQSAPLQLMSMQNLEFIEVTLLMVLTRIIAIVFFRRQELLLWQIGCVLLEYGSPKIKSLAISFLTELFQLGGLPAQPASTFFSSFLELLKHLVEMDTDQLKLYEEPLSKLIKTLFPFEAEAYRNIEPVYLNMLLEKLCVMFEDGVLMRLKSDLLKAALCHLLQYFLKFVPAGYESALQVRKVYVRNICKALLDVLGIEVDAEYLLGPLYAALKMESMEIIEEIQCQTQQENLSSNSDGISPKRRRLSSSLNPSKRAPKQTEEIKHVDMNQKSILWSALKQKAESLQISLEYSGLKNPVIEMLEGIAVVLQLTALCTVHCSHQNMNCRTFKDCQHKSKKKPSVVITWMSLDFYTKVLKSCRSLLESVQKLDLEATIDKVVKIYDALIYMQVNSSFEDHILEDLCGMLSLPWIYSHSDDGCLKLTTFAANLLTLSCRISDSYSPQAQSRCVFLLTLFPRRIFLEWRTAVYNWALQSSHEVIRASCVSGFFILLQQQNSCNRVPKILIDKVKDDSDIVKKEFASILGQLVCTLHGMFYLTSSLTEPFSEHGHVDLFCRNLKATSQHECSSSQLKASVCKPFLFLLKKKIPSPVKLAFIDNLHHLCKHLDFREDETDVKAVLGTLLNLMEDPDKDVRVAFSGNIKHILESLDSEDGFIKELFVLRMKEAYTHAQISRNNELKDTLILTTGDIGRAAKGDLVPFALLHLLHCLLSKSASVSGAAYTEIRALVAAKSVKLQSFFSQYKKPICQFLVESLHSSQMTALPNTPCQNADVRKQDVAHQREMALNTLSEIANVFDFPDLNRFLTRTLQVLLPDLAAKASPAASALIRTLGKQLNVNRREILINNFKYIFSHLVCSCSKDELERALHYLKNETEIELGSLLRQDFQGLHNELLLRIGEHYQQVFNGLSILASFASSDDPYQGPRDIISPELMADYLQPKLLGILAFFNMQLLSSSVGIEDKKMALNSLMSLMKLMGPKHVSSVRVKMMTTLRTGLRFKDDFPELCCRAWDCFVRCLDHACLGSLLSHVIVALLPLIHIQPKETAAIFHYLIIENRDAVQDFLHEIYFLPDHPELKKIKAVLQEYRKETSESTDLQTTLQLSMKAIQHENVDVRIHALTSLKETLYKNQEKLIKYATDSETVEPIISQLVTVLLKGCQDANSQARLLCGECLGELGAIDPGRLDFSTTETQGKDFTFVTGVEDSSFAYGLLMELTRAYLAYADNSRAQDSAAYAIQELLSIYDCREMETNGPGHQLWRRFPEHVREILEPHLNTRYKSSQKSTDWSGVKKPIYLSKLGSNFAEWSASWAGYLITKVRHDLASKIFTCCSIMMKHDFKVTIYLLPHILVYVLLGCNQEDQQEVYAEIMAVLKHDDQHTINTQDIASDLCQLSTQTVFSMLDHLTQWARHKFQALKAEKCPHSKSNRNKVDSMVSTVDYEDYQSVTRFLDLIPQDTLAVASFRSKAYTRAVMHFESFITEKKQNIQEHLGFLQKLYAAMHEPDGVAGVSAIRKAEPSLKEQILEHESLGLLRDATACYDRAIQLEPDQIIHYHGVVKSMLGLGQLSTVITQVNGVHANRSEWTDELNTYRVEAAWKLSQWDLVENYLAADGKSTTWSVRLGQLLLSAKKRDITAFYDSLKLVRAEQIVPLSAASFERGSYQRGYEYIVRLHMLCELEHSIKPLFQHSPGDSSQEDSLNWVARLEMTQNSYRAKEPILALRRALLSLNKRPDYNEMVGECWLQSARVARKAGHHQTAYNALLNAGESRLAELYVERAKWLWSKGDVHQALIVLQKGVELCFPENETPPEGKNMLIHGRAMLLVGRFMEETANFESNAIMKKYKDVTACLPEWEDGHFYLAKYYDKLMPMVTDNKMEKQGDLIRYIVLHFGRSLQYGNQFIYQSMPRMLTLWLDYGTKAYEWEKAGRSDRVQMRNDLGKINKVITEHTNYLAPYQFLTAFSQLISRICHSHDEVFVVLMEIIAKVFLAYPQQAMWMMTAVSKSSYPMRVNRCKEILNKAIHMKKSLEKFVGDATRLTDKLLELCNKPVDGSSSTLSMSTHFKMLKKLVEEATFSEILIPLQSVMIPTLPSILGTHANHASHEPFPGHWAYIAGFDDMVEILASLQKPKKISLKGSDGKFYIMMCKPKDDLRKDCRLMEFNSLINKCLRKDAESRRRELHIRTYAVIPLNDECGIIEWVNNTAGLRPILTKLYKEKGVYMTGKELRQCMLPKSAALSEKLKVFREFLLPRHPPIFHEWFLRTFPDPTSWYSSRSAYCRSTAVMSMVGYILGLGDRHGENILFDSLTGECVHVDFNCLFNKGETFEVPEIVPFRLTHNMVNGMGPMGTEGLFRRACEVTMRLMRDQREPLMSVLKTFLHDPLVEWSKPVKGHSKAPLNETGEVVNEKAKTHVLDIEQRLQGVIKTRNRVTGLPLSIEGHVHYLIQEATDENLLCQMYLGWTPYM", "assay": "ATR Inhibition Assay (radioactive-phosphate incorporation)", "type": "biochemical", "settings": "read-out: ATR Ki", "in_short": "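Full-length human ATR (5 nM) was assayed at 25 °C in 50 mM Tris/HCl pH 7.5, 10 mM MgCl2, 1 mM DTT, with 10 μM [γ-33P]ATP and 800 μM peptide, after 10-min compound preincubation. Reactions were stopped after 24 h, captured on phosphocellulose and counted; Ki(app) came from non-linear regression of initial rates.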", "units": {"Ki": "nM"}, "values": [{"smiles": "CNCc1ccc(-c2nnc(-c3nc(-c4ccc(S(=O)(=O)C(C)CCOC)cc4)cnc3N)o2)cc1", "note": "(stereo not shown) [IA-330, 5-[4-(3-methoxy-1-methyl-propyl)sulfonylphenyl]-3-[5-[4-(methylaminomethyl)phenyl]-1,3,4-oxadiazol-2-yl]pyrazin-2-amine]", "Ki": "≤ 10"}, {"smiles": "CNCc1ccc(-c2nnc(-c3nc(-c4ccc(S(=O)(=O)C(C)C)cc4C#N)cnc3N)o2)cc1", "note": "[IA-331, 2-[5-amino-6-[5-[4-(methylaminomethyl)phenyl]-1,3,4-oxadiazol-2-yl]pyrazin-2-yl]-5-isopropylsulfonyl-benzonitrile]", "Ki": "≤ 10"}, {"smiles": "CC(C)S(=O)(=O)c1ccc(-c2cnc(N)c(-c3nnc(-c4ccc(CN[C@H](C)CO)cc4F)o3)n2)cc1", "note": "[IA-333, (R)-2-(4-(5-(3-amino-6-(4-(isopropylsulfonyl)phenyl)pyrazin-2-yl)-1,3,4-oxadiazol-2-yl)-3-fluorobenzylamino)propan-1-ol]", "Ki": "≤ 10"}, {"smiles": "CC(C)S(=O)(=O)c1ccc(-c2cnc(N)c(-c3nnc(-c4ccc(CNC[C@H](C)O)cc4F)o3)n2)cc1", "note": "[IA-334, (S)-1-(4-(5-(3-amino-6-(4-(isopropylsulfonyl)phenyl)pyrazin-2-yl)-1,3,4-oxadiazol-2-yl)-3-fluorobenzylamino)propan-2-ol]", "Ki": "≤ 10"}, {"smiles": "CC(C)S(=O)(=O)c1ccc(-c2cnc(N)c(-c3nnc(-c4ccc(CN[C@@H](C)CO)cc4F)o3)n2)cc1", "note": "[IA-335, (S)-2-(4-(5-(3-amino-6-(4-(isopropylsulfonyl)phenyl)pyrazin-2-yl)-1,3,4-oxadiazol-2-yl)-3-fluorobenzylamino)propan-1-ol]", "Ki": "≤ 10"}, {"smiles": "CNCc1ccc(-c2nnc(-c3nc(-c4ccc(S(=O)(=O)C(C)C)cc4)cnc3N)o2)cc1F", "note": "[IA-336, 3-[5-[3-fluoro-4-(methylaminomethyl)phenyl]-1,3,4-oxadiazol-2-yl]-5-(4-isopropylsulfonylphenyl)pyrazin-2-amine]", "Ki": "≤ 10"}, {"smiles": "CC(CN(C)C)S(=O)(=O)c1ccc(-c2cnc(N)c(-c3nnc(-c4ccccc4F)o3)n2)cc1", "note": "(stereo not shown) [IA-337, 5-[4-[2-(dimethylamino)-1-methyl-ethyl]sulfonylphenyl]-3-[5-(2-fluorophenyl)-1,3,4-oxadiazol-2-yl]pyrazin-2-amine]", "Ki": "≤ 10"}, {"smiles": "CCC(C)S(=O)(=O)c1ccc(-c2cnc(N)c(-c3nnc(-c4ccc(CNC)cc4F)o3)n2)cc1", "note": "(stereo not shown) [IA-338, 3-[5-[2-fluoro-4-(methylaminomethyl)phenyl]-1,3,4-oxadiazol-2-yl]-5-(4-sec-butylsulfonylphenyl)pyrazin-2-amine]", "Ki": "≤ 10"}, {"smiles": "CC(CCO)S(=O)(=O)c1ccc(-c2cnc(N)c(-c3nnc(-c4ccccc4F)o3)n2)cc1", "note": "(stereo not shown) [IA-339, 3-[4-[5-amino-6-[5-(2-fluorophenyl)-1,3,4-oxadiazol-2-yl]pyrazin-2-yl]phenyl]sulfonylbutan-1-ol]", "Ki": "≤ 10"}, {"smiles": "CC(C)S(=O)(=O)c1ccc(-c2cnc(N)c(-c3nnc(-c4ccc(CNCCF)cc4F)o3)n2)cc1", "note": "[IA-340, 3-[5-[2-fluoro-4-[(2-fluoroethylamino)methyl]phenyl]-1,3,4-oxadiazol-2-yl]-5-(4-isopropylsulfonylphenyl)pyrazin-2-amine]", "Ki": "≤ 10"}, {"smiles": "CC(C)S(=O)(=O)c1ccc(-c2cnc(N)c(-c3nnc(-c4ccc(CNC[C@@H](C)O)cc4F)o3)n2)cc1", "note": "[IA-341, (R)-1-(4-(5-(3-amino-6-(4-(isopropylsulfonyl)phenyl)pyrazin-2-yl)-1,3,4-oxadiazol-2-yl)-3-fluorobenzylamino)propan-2-ol]", "Ki": "≤ 10"}, {"smiles": "CNCc1ccc(-c2nnc(-c3nc(-c4ccc(S(=O)(=O)C(C)CCO)cc4)cnc3N)o2)c(F)c1", "note": "(stereo not shown) [IA-342, 3-[4-[5-amino-6-[5-[2-fluoro-4-(methylaminomethyl)phenyl]-1,3,4-oxadiazol-2-yl]pyrazin-2-yl]phenyl]sulfonylbutan-1-ol]", "Ki": "≤ 10"}, {"smiles": "CC(CCN(C)C)S(=O)(=O)c1ccc(-c2cnc(N)c(-c3nnc(-c4ccccc4F)o3)n2)cc1", "note": "(stereo not shown) [IA-343, 5-[4-[3-(dimethylamino)-1-methyl-propyl]sulfonylphenyl]-3-[5-(2-fluorophenyl)-1,3,4-oxadiazol-2-yl]pyrazin-2-amine]", "Ki": "≤ 10"}, {"smiles": "CNCc1ccc(-c2nnc(-c3nc(-c4ccc(S(=O)(=O)C5CCOCC5)cc4)cnc3N)o2)c(F)c1", "note": "[IA-344, 3-[5-[2-fluoro-4-(methylaminomethyl)phenyl]-1,3,4-oxadiazol-2-yl]-5-(4-tetrahydropyran-4-ylsulfonylphenyl)pyrazin-2-amine]", "Ki": "≤ 10"}, {"smiles": "CC(C)S(=O)(=O)c1ccc(-c2cnc(N)c(-c3nnc(-c4ccc(CNC5CCOC5)cc4F)o3)n2)cc1", "note": "(stereo not shown) [IA-345, 3-[5-[2-fluoro-4-[(tetrahydrofuran-3-ylamino)methyl]phenyl]-1,3,4-oxadiazol-2-yl]-5-(4-isopropylsulfonylphenyl)pyrazin-2-amine]", "Ki": "≤ 10"}, {"smiles": "CC(C)S(=O)(=O)c1ccc(-c2cnc(N)c(-c3nnc(-c4ccc(CNCCF)cc4)o3)n2)cc1", "note": "[IA-346, 3-[5-[4-[(2-fluoroethylamino)methyl]phenyl]-1,3,4-oxadiazol-2-yl]-5-(4-isopropylsulfonylphenyl)pyrazin-2-amine]", "Ki": "≤ 10"}, {"smiles": "CNCc1ccc(-c2nnc(-c3nc(-c4ccc(S(=O)(=O)C5CCOC5)cc4)cnc3N)o2)c(F)c1", "note": "(stereo not shown) [IA-347, 3-[5-[2-fluoro-4-(methylaminomethyl)phenyl]-1,3,4-oxadiazol-2-yl]-5-(4-tetrahydrofuran-3-ylsulfonylphenyl)pyrazin-2-amine]", "Ki": "≤ 10"}, {"smiles": "CC(C)S(=O)(=O)c1ccc(-c2cnc(N)c(-c3nnc(-c4ccc(CNCC(C)(C)O)cc4F)o3)n2)cc1", "note": "[IA-348, 1-(4-(5-(3-amino-6-(4-(isopropylsulfonyl)phenyl)pyrazin-2-yl)-1,3,4-oxadiazol-2-yl)-3-fluorobenzylamino)-2-methylpropan-2-ol]", "Ki": "≤ 10"}, {"smiles": "Nc1ncc(-c2ccc(S(=O)(=O)C3CCOC3)cc2)nc1-c1nnc(-c2ccccc2F)o1", "note": "(stereo not shown) [IA-349, 3-[5-(2-fluorophenyl)-1,3,4-oxadiazol-2-yl]-5-(4-tetrahydrofuran-3-ylsulfonylphenyl)pyrazin-2-amine]", "Ki": "≤ 10"}, {"smiles": "Nc1ncc(-c2ccc(C(=O)N3CCCNCC3)cc2)nc1-c1cc(-c2ccccc2)no1", "note": "[IIA-3]", "Ki": "≤ 10"}, {"smiles": "CC(C)S(=O)(=O)c1ccc(-c2cnc(N)c(-c3cc(-c4ccc(CN)cc4)no3)n2)cc1", "note": "[IIA-5, 3-[3-[4-(aminomethyl)phenyl]isoxazol-5-yl]-5-(4-isopropylsulfonylphenyl)pyrazin-2-amine]", "Ki": "≤ 10"}, {"smiles": "CCCNCc1ccc(-c2cc(-c3nc(-c4ccc(S(=O)(=O)C(C)C)cc4)cnc3N)on2)cc1", "note": "[IIA-6, 5-(4-(isopropylsulfonyl)phenyl)-3-(3-(4-((propylamino)methyl)phenyl)isoxazol-5-yl)pyrazin-2-amine]", "Ki": "≤ 10"}, {"smiles": "CC(C)NCc1ccc(-c2cc(-c3nc(-c4ccc(S(=O)(=O)C(C)C)cc4)cnc3N)on2)cc1", "note": "[IIA-8, 3-[3-[4-[(isopropylamino)methyl]phenyl]isoxazol-5-yl]-5-(4-isopropylsulfonylphenyl)pyrazin-2-amine]", "Ki": "≤ 10"}, {"smiles": "CC(C)S(=O)(=O)c1ccc(-c2cnc(N)c(-c3cc(-c4ccc(CNCCO)cc4)no3)n2)cc1", "note": "[IIA-9, 2-(4-(5-(3-amino-6-(4-(isopropylsulfonyl)phenyl)pyrazin-2-yl)isoxazol-3-yl)benzylamino)ethanol]", "Ki": "≤ 10"}, {"smiles": "CCNCc1ccc(-c2cc(-c3nc(-c4ccc(S(=O)(=O)C(C)C)cc4)cnc3N)on2)cc1", "note": "[IIA-10, 3-[3-[4-(ethylaminomethyl)phenyl]isoxazol-5-yl]-5-(4-isopropylsulfonylphenyl)pyrazin-2-amine]", "Ki": "≤ 10"}, {"smiles": "CNCc1ccc(-c2cc(-c3nc(-c4ccc(S(=O)(=O)C(C)C)cc4)cnc3N)on2)c(C)c1", "note": "[IIA-12, 5-(4-isopropylsulfonylphenyl)-3-[3-[2-methyl-4-(methylaminomethyl)phenyl]isoxazol-5-yl]pyrazin-2-amine]", "Ki": "≤ 10"}, {"smiles": "CNCc1ccc(-c2cc(-c3nc(-c4ccc(S(=O)(=O)C(C)C)cc4)cnc3N)on2)cc1Cl", "note": "[IIA-13, 3-[3-[3-chloro-4-(methylaminomethyl)phenyl]isoxazol-5-yl]-5-(4-isopropylsulfonylphenyl)pyrazin-2-amine]", "Ki": "≤ 10"}, {"smiles": "CNCc1ccc(-c2cc(-c3nc(-c4ccc(S(=O)(=O)C(C)C)cc4)cnc3N)on2)c(F)c1", "note": "[IIA-14, 3-[3-[2-fluoro-4-(methylaminomethyl)phenyl]isoxazol-5-yl]-5-(4-isopropylsulfonylphenyl)pyrazin-2-amine]", "Ki": "≤ 10"}, {"smiles": "CNCc1ccc(-c2cc(-c3nc(-c4ccc(S(=O)(=O)C5CCOC5)cc4)cnc3N)on2)c(F)c1", "note": "(stereo not shown) [IIA-16, 3-[3-[2-fluoro-4-(methylaminomethyl)phenyl]isoxazol-5-yl]-5-(4-tetrahydrofuran-3-ylsulfonylphenyl)pyrazin-2-amine]", "Ki": "≤ 10"}, {"smiles": "Cc1ccc2nc(-c3nc(-c4ccc(C(=O)N5CCCNCC5)cc4)cnc3N)[nH]c2c1", "note": "[III-1, (4-(5-amino-6-(6-methyl-1H-benzo[d]imidazol-2-yl)pyrazin-2-yl)phenyl) (1,4-diazepan-1-yl)methanone]", "Ki": "10 to 100"}, {"smiles": "Cc1ccc2nc(-c3nc(-c4ccc(C(=O)N5CCC(N(C)C)CC5)cc4)cnc3N)[nH]c2c1", "note": "[III-2, (4-(5-amino-6-(6-methyl-1H-benzo[d]imidazol-2-yl)pyrazin-2-yl)phenyl)(4-(dimethylamino)piperidin-1-yl)methanone]", "Ki": "10 to 100"}, {"smiles": "Cc1ccc2nc(-c3nc(-c4ccc(C(=O)N5CCNCC5)cc4)cnc3N)[nH]c2c1", "note": "[III-3, (4-(5-amino-6-(6-methyl-1H-benzo[d]imidazol-2-yl)pyrazin-2-yl)phenyl)(piperazin-1-yl)methanone]", "Ki": "10 to 100"}, {"smiles": "Cc1ccc2nc(-c3nc(-c4ccc(C(=O)N5CCN(C)CC5)cc4)cnc3N)[nH]c2c1", "note": "[III-4, (4-(5-amino-6-(6-methyl-1H-benzo[d]imidazol-2-yl)pyrazin-2-yl)phenyl)(4-methylpiperazin-1-yl)methanone]", "Ki": "10 to 100"}, {"smiles": "Cc1ccc2nc(-c3nc(-c4ccc(C(=O)N5CCCN(C)CC5)cc4)cnc3N)[nH]c2c1", "note": "[III-5, (4-(5-amino-6-(6-methyl-1H-benzo[d]imidazol-2-yl)pyrazin-2-yl)phenyl)(4-methyl-1,4-diazepan-1-yl)methanone]", "Ki": "10 to 100"}]}]}
